The structures appear in SMILES notation. In brackets after ≈: the same amount, converted by molar mass.

Holding throughout (type): functional
Assay [1] has as its system Mus musculus. Put plainly: Antibacterial activity against Escherichia coli (311) infection in mice after single subcutaneous dose, activity expressed as ED50. The note with it: sc.
Assay [2] has as its system Mus musculus. Put plainly: Antibacterial activity against Escherichia coli (311) infection in mice after single oral dose, activity expressed as ED50.
Assay [3] deals with Stenotrophomonas maltophilia. Kind of assay: In vitro antibacterial activity against X. maltophilia(GC 562) without pre-incubation in mouse serum.
Assay [4] concerns Stenotrophomonas maltophilia. Kind of assay: In vitro antibacterial activity against X. maltophilia(GC 562) following pre-incubation in mouse serum.
Assay [5] concerns Staphylococcus aureus. Put plainly: In vitro antibacterial activity against S. aureus(ATCC 29213) without pre-incubation in mouse serum.
In assay [6] the test system is Acinetobacter calcoaceticus. Put plainly: In vitro antibacterial activity against Acinetobacter calcoaceticus (GC 756) without preincubation in mouse serum.
Assay [7] deals with Enterobacter cloacae. Put plainly: In vitro antibacterial activity against E. cloacae(GC 2209) without pre-incubation in mouse serum.
Assay [8] relates to Acinetobacter calcoaceticus. Put plainly: In vitro antibacterial activity against Acinetobacter calcoaceticus (GC 756) following preincubation in mouse serum.
For assay [9], the system named is Escherichia coli. Kind of assay: In vitro antibacterial activity expressed as MIC against E. coli(GC 2205) without pre-incubation in mouse serum.
The test system of assay [10] is Enterococcus faecium. Put plainly: In vitro for antibacterial activity against E. faecium(GC 1182) without pre-incubation in mouse serum.
For assay [11], the target named is T1, Dipeptidase 1 (Sus scrofa) (UniProt P22412).
T1 sequence (whole entry): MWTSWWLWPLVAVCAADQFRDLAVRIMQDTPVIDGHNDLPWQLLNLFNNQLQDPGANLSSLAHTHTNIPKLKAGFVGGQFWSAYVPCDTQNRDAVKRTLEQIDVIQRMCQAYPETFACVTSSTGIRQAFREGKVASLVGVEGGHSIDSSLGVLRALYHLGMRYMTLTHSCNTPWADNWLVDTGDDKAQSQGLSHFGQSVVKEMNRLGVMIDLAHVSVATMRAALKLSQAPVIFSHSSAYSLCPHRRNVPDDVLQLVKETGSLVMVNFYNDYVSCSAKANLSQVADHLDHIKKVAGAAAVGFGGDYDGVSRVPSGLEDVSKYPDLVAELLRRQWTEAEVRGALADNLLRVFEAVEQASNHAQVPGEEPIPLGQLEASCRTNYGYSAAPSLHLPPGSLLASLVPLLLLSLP
Put plainly: Relative hydrolysis by hog Dehydropeptidase.

Assay [12] has as its system Morganella morganii. Put plainly: In vitro antibacterial activity against M. morganii(GC 2213) following pre-incubation in mouse serum.
Assay [13] concerns Citrobacter freundii. Put plainly: In vitro antibacterial activity against C. freundii(GC 2211) following pre-incubation in mouse serum.
Assay [14] relates to Escherichia coli. Put plainly: In vitro antibacterial activity expressed as MIC against E. coli(GC 1792) following pre-incubation in mouse serum.
Assay [15] concerns Enterococcus faecalis. Put plainly: In vitro antibacterial activity against E. faecalis(GC 842) without pre-incubation in mouse serum.
Assay [16] has as its system Pseudomonas aeruginosa. Put plainly: In vitro antibacterial activity against P. aeruginosa(GC 1544 oprd) following pre-incubation in mouse serum.
Assay [17] has as its system Escherichia coli. Kind of assay: In vitro antibacterial activity expressed as MIC against E. coli(GC 1792) without pre-incubation in mouse serum.
In assay [18] the test system is Enterobacter cloacae. Put plainly: In vitro antibacterial activity against E. cloacae(GC 2209) following preincubation in mouse serum.
Assay [19] deals with Pseudomonas aeruginosa. Kind of assay: In vitro antibacterial activity against Pseudomonas aeruginosa (ATCC 27853) without pre-incubation in mouse serum.
In assay [20] the test system is Escherichia coli. Kind of assay: In vitro antibacterial activity expressed as MIC against Escherichia coli (ATCC 25922) without pre-incubation in mouse serum.
The subject of assay [21] is Staphylococcus aureus. Kind of assay: In vitro antibacterial activity against S aureus(ATCC 29213) following preincubation in mouse serum.
Assay [22] concerns Pseudomonas aeruginosa. Put plainly: In vitro antibacterial activity against P. aeruginosa(GC 1544 oprd) without pre-incubation in mouse serum.
Assay [23] concerns Staphylococcus aureus. Kind of assay: In vitro antibacterial activity against S. aureus(GC 2220 MRSA) without pre-incubation in mouse serum.
In assay [24] the test system is Escherichia coli. Kind of assay: In vitro antibacterial activity expressed as MIC against Escherichia coli (ATCC 25922) following pre-incubation in mouse serum.
For assay [25], the system named is Enterococcus faecium. Put plainly: In vitro for antibacterial activity against E. faecium(GC 1182) following pre-incubation in mouse serum.
Assay [26] concerns Enterococcus faecalis. Kind of assay: In vitro antibacterial activity against E. faecalis(GC 842) following pre-incubation in mouse serum.
Assay [27] concerns Pseudomonas aeruginosa. Kind of assay: In vitro antibacterial activity against Pseudomonas aeruginosa (ATCC 27853) following pre-incubation in mouse serum.
For assay [28], the system named is Staphylococcus aureus. Kind of assay: In vitro antibacterial activity against S. aureus(GC 2220 MRSA) following pre-incubation in mouse serum.
The test system of assay [29] is Citrobacter freundii. Put plainly: In vitro antibacterial activity against C. freundii(GC 2211) without preincubation in mouse serum.
The subject of assay [30] is Escherichia coli. Kind of assay: In vitro antibacterial activity expressed as MIC against E. coli(GC 2205) following pre-incubation in mouse serum.
For assay [31], the system named is Morganella morganii. Kind of assay: In vitro antibacterial activity against M. morganii(GC 2213) without pre-incubation in mouse serum.

Broadly, the ED50 is the dose at which the effect has come halfway, by size or by number of responders. Read a low ED50 as greater potency. For `CCOC(=O)OCOC(=O)C1=C(S[C@@H]2CCO[C@@H]2CNC(=O)OCOC(=O)c2ccccc2)[C@H](C)C2[C@@H]([C@@H](C)O)C(=O)N12` (some centres undefined), the ED50 in the assay with Mus musculus [1] turned out to be 0.54 mg/kg; in the assay on Mus musculus [2] it was 0.76 mg/kg.
Usually MIC stands for the least concentration at which growth counts as inhibited. As to `CCOC(=O)OCOC(=O)C1=C(S[C@@H]2CCO[C@@H]2CNC(=O)OC(C)OC(C)=O)[C@H](C)C2[C@@H]([C@@H](C)O)C(=O)N12` (some centres undefined), the MIC in assay [3] was more than 128 mg/L; in assay [4] it was more than 128 mg/L; against Staphylococcus aureus [5] it was 8 mg/L (≈ 13.9 µM); in assay [6] it was more than 128 mg/L; against Enterobacter cloacae [7], 64 mg/L (≈ 111 µM); in assay [8], 4 mg/L (≈ 6.96 µM). The MIC in the assay on Escherichia coli [9] is 1 mg/L (≈ 1.74 µM); with Enterococcus faecium [10], more than 128 mg/L; in the assay with Morganella morganii [12], 1 mg/L (≈ 1.74 µM); against Citrobacter freundii [13] it was 0.25 mg/L (≈ 0.435 µM); with Escherichia coli [14], less than 0.06 mg/L; in the assay with Enterococcus faecalis [15] it was 64 mg/L (≈ 111 µM). In addition, the MIC was 32 mg/L (≈ 55.7 µM) against Pseudomonas aeruginosa [16]; 8 mg/L (≈ 13.9 µM) against Escherichia coli [17]; 0.12 mg/L (≈ 0.209 µM) with Enterobacter cloacae [18]; more than 128 mg/L with Pseudomonas aeruginosa [19]; 4 mg/L (≈ 6.96 µM) in the assay with Escherichia coli [20]; 0.03 mg/L (≈ 0.0522 µM) in the assay on Staphylococcus aureus [21]. Also, the MIC was more than 128 mg/L in the assay on Pseudomonas aeruginosa [22]; more than 128 mg/L against Staphylococcus aureus [23]; less than 0.06 mg/L in the assay on Escherichia coli [24]; 128 mg/L (≈ 223 µM) against Enterococcus faecium [25]; 2 mg/L (≈ 3.48 µM) in the assay with Enterococcus faecalis [26]; 16 mg/L (≈ 27.8 µM) in the assay with Pseudomonas aeruginosa [27]. Also, the MIC against Staphylococcus aureus [28] is 2 mg/L (≈ 3.48 µM); with Citrobacter freundii [29], 128 mg/L (≈ 223 µM); with Escherichia coli [30], 0.06 mg/L (≈ 0.104 µM); in the assay with Morganella morganii [31], 32 mg/L (≈ 55.7 µM). In assay [11], this molecule yielded a Relative hydrolysis of 4.9. The ED50 was determined as 0.59 mg/kg in the assay with Mus musculus [1] and 0.83 mg/kg in the assay on Mus musculus [2].
As to `CCCC(=O)OCOC(=O)NC[C@H]1OCC[C@H]1SC1=C(C(=O)[O-])N2C(=O)[C@H]([C@@H](C)O)C2[C@H]1C.[Na+]` (some centres undefined), the MIC in assay [3] is more than 128 mg/L; in [4], more than 128 mg/L; against Staphylococcus aureus [5], 0.12 mg/L; in [6] it was 32 mg/L; in the assay on Enterobacter cloacae [7] it was 2 mg/L; in assay [8], 2 mg/L. For the same molecule, the MIC against Escherichia coli [9] was less than 0.06 mg/L; against Enterococcus faecium [10], 128 mg/L; against Morganella morganii [12], 0.5 mg/L; in the assay with Citrobacter freundii [13], 0.12 mg/L; against Escherichia coli [14] it was less than 0.06 mg/L; against Enterococcus faecalis [15], 2 mg/L. Also, the MIC against Pseudomonas aeruginosa [16] amounted to 16 mg/L; in the assay with Escherichia coli [17], 0.5 mg/L; in the assay on Enterobacter cloacae [18], 0.06 mg/L; in the assay with Pseudomonas aeruginosa [19], 64 mg/L; with Escherichia coli [20] it was 0.5 mg/L; with Staphylococcus aureus [21], 0.03 mg/L. In addition, the MIC against Pseudomonas aeruginosa [22] is more than 128 mg/L; in the assay with Staphylococcus aureus [23], 8 mg/L; against Escherichia coli [24] it was less than 0.06 mg/L; against Enterococcus faecium [25], 64 mg/L; with Enterococcus faecalis [26], 1 mg/L; against Pseudomonas aeruginosa [27] it was 8 mg/L. Also, the MIC against Staphylococcus aureus [28] was 1 mg/L; with Citrobacter freundii [29] it was 4 mg/L; with Escherichia coli [30], less than 0.06 mg/L; against Morganella morganii [31], 2 mg/L. The molecule also showed a Relative hydrolysis in assay [11] of 5.9. The ED50 in the assay with Mus musculus [1] is 0.26 mg/kg; in the assay with Mus musculus [2], 3.4 mg/kg.
On to `CC(=O)OC(C)OC(=O)NC[C@H]1OCC[C@H]1SC1=C(C(=O)[O-])N2C(=O)[C@H]([C@@H](C)O)C2[C@H]1C.[Na+]` (some centres undefined), for which the MIC in [3] was more than 128 mg/L; in assay [4] it was more than 128 mg/L; against Staphylococcus aureus [5], 0.5 mg/L; in [6] it was 32 mg/L; in the assay on Enterobacter cloacae [7], 2 mg/L; in assay [8], 4 mg/L. The MIC is 0.12 mg/L in the assay on Escherichia coli [9]; more than 128 mg/L in the assay with Enterococcus faecium [10]; 1 mg/L in the assay on Morganella morganii [12]; 0.25 mg/L against Citrobacter freundii [13]; less than 0.06 mg/L in the assay with Escherichia coli [14]; 4 mg/L with Enterococcus faecalis [15]. Besides, the MIC was 32 mg/L against Pseudomonas aeruginosa [16]; 0.25 mg/L in the assay with Escherichia coli [17]; less than 0.06 mg/L in the assay on Enterobacter cloacae [18]; 64 mg/L against Pseudomonas aeruginosa [19]; 0.12 mg/L against Escherichia coli [20]; less than 0.06 mg/L in the assay on Staphylococcus aureus [21]. Also, the MIC in the assay on Pseudomonas aeruginosa [22] was more than 128 mg/L; in the assay with Staphylococcus aureus [23], 32 mg/L; in the assay on Escherichia coli [24], less than 0.06 mg/L; against Enterococcus faecium [25], 64 mg/L; with Enterococcus faecalis [26] it was 1 mg/L; in the assay on Pseudomonas aeruginosa [27], 16 mg/L. In addition, the MIC against Staphylococcus aureus [28] was 8 mg/L; with Citrobacter freundii [29], 4 mg/L; in the assay with Escherichia coli [30] it was less than 0.06 mg/L; in the assay with Morganella morganii [31] it was 2 mg/L. The results for the ED50 in the assay with Mus musculus [1] and in the assay on Mus musculus [2] were 0.65 mg/kg and 4.9 mg/kg, respectively.
`CCCC(=O)OCOC(=O)NC[C@H]1OCC[C@H]1SC1=C(C(=O)OCOC(=O)OCC)N2C(=O)[C@H]([C@@H](C)O)C2[C@H]1C` (some centres undefined): the values for the ED50 in the assay with Mus musculus [1] and with Mus musculus [2] were 0.49 mg/kg and 1.3 mg/kg, respectively.
For `CCOC(=O)OC(C)OC(=O)C1=C(S[C@@H]2CCO[C@@H]2CN)[C@H](C)C2[C@@H]([C@@H](C)O)C(=O)N12.Cl` (some centres undefined) the same measures were 1.8 mg/kg and 25 mg/kg.
For `C[C@@H](O)[C@H]1C(=O)N2C(C(=O)O)=C(SCCNC=N)C[C@H]12` [IMIPENEM ANHYDROUS] the same measures were 0.7 mg/kg and 79 mg/kg.
Turning to `CC(OC(=O)OC1=CCCCC1)OC(=O)C1=C(S[C@@H]2CCO[C@@H]2CNC(=O)OCOC(=O)C(C)C)[C@H](C)C2[C@@H]([C@@H](C)O)C(=O)N12` (some centres undefined), the ED50 worked out at 1.9 mg/kg in the assay with Mus musculus [1] and 1.5 mg/kg with Mus musculus [2].
For `C[C@H]1C(S[C@@H]2CCO[C@@H]2CNC(=O)OCOC(=O)c2ccccc2)=C(C(=O)[O-])N2C(=O)[C@H]([C@@H](C)O)C12.[Na+]` (some centres undefined) the same measures were 0.32 mg/kg and 2.9 mg/kg.

The values above are taken from ChEMBL document CHEMBL1130478, “Mono and bis double ester prodrugs of novel aminomethyl-THF 1-methylcarbapenems” (Bioorg Med Chem Lett, 1997).
